Experimental data from patent publication US20230295182A1, “SPIRO DERIVATIVES OF ALPHA-D-GALACTOPYRANOSIDES” (Idorsia Pharmaceuticals Ltd, priority 2020, published 2023).

Columns and labels:
human Gal-3 (hGal-3) = human Gal-3 (hGal-3) (Homo sapiens (Human), UniProt P17931); test: Competitive binding assay: biotinylated hGal-3 to microplate-adsorbed asialofetuin (ASF); details: Activity on hGal-3; binding to ASF-coated plates, 3 hours at 4° C.; mean values
Method: Evaluation of Compound Inhibitory Activity (IC50)
The inhibitory activity of compounds is determined in competitive binding assays. This spectrophotometric assay measures the binding of biotinylated human Gal-3 (hGal-3) or human Gal-1 (hGal-1), respectively, to a microplate-adsorbed glycoprotein, asialofetuin (ASF) (Proc Natl Acad Sci USA. 2013 Mar. 26; 110(13):5052-7.). Alternatively, and preferably, a human Gal-1 version in which all six cysteines are substituted by serines may be used.
Briefly, compounds are serially diluted in DMSO (working dilutions). ASF-coated 384 well plates are supplemented with 22.8 μL/well of biotinylated hGal-3 or hGal-1 in assay buffer (i.e. 300-1000 ng/mL biotinylated hGal-3 or hGal-1) to which 1.2 µL of compound working dilutions are added and mixed.
Plates are incubated for 3 hours at 4° C., then washed with cold assay buffer (3×50 uL), incubated for 1 hour with 25 μL/well of a streptavidin-peroxidase solution (diluted in assay buffer to 80 ng/mL) at 4° C., followed by further washing steps with assay buffer (3×50 uL). Finally, 25 µL/well of ABTS substrate is added.
The calculated IC50 values may fluctuate depending on the daily assay performance. Fluctuations of this kind are known to those skilled in the art. IC50 values from several measurements are given as mean values.

human Gal-1 (hGal-1) = human Gal-1 (hGal-1) (Homo sapiens, UniProt P09382); test: Competitive binding assay: biotinylated hGal-1 to microplate-adsorbed asialofetuin (ASF); details: Activities on hGal-1; binding to ASF-coated plates, 3 hours at 4° C.; mean values; read-out: Gal-1 IC50
Method: Evaluation of Compound Inhibitory Activity (IC50) The inhibitory activity of compounds is determined in competitive binding assays. […] Alternatively, and preferably, a human Gal-1 version in which all six cysteines are substituted by serines may be used. Briefly, compounds are serially diluted in DMSO (working dilutions). […] Plates are incubated for 3 hours at 4° C., then washed with cold assay buffer (3×50 uL), incubated for 1 hour with 25 μL/well of a streptavidin-peroxidase solution (diluted in assay buffer to 80 ng/mL) at 4° C., followed by further washing steps with assay buffer (3×50 uL). Finally, 25 µL/well of ABTS substrate is added. […] The calculated IC50 values may fluctuate depending on the daily assay performance. Fluctuations of this kind are known to those skilled in the art. IC50 values from several measurements are given as mean values.

human Gal-1 (hGal-1), sequence (P09382 2-135 limits assumed): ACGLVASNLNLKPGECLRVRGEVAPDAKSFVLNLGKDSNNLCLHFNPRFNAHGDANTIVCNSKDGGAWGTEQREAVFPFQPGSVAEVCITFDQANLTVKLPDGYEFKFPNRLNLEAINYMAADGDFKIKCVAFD
human Gal-3 (hGal-3), sequence (P17931 whole entry): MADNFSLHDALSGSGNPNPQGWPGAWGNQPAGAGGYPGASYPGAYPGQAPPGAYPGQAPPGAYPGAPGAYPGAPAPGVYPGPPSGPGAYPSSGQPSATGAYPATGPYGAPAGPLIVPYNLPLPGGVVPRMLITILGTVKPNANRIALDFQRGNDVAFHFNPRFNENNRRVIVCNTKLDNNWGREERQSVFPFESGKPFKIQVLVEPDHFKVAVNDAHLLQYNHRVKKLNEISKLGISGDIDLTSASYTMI

An IC50 (human Gal-3 (hGal-3)) of 35 nM and an IC50 (human Gal-1 (hGal-1)) of 1100 nM were found for CO[C@@H]1[C@@H](n2cc(-c3cc(F)c(F)c(F)c3)nn2)[C@@H](O)[C@@H](CO)O[C@@H]1CC1=NO[C@]2(CC[C@H](NC(=O)OC(C)(C)C)CC2)C1 [Example 1.15, tert-butyl ((5r,8R)-3-(((2R,3R,4S,5R,6R)-5-hydroxy-6-(hydroxymethyl)-3-methoxy-4-(4-(3,4,5-trifluorophenyl)-1H-1,2,3-triazol-1-yl)tetrahydro-2H-pyran-2-yl)methyl)-1-oxa-2-azaspiro[4.5]dec-2-en-8-yl)carbamate] in this work.

An IC50 (human Gal-3 (hGal-3)) of 440 nM and an IC50 (human Gal-1 (hGal-1)) of 2200 nM were found for CO[C@@H]1[C@@H](n2cc(-c3cc(F)c(F)c(F)c3)nn2)[C@@H](O)[C@@H](CO)O[C@@H]1CC1=NOC2(CCC(C)(C)CC2)C1 [Example 1.29, (2R,3R,4S,5R,6R)-6-((8,8-dimethyl-1-oxa-2-azaspiro[4.5]dec-2-en-3-yl)methyl)-2-(hydroxymethyl)-5-methoxy-4-(4-(3,4,5-trifluorophenyl)-1H-1,2,3-triazol-1-yl)tetrahydro-2H-pyran-3-ol] in this work.

An IC50 (human Gal-3 (hGal-3)) of 490 nM and an IC50 (human Gal-1 (hGal-1)) of 2400 nM were found for CO[C@@H]1[C@@H](n2cc(-c3ccc(Cl)c(F)c3F)nn2)[C@@H](O)[C@@H](CO)O[C@@H]1CC1=NO[C@]2(CC[C@H](C(C)(C)O)CC2)C1 [Example 1.64, (2R,3R,4S,5R,6R)-4-(4-(4-chloro-2,3-difluorophenyl)-1H-1,2,3-triazol-1-yl)-2-(hydroxymethyl)-6-(((5r,8R)-8-(2-hydroxypropan-2-yl)-1-oxa-2-azaspiro[4.5]dec-2-en-3-yl)methyl)-5-methoxytetrahydro-2H-pyran-3-ol] in this work.

An IC50 (human Gal-3 (hGal-3)) of 450 nM and an IC50 (human Gal-1 (hGal-1)) of 4900 nM were found for CO[C@@H]1[C@@H](n2cc(-c3cc(F)c(F)c(F)c3)nn2)[C@@H](O)[C@@H](CO)O[C@@H]1CC1=NOC2(CCC(F)(F)CC2)C1 [Example 1.24, (2R,3R,4S,5R,6R)-6-((8,8-difluoro-1-oxa-2-azaspiro[4.5]dec-2-en-3-yl)methyl)-2-(hydroxymethyl)-5-methoxy-4-(4-(3,4,5-trifluorophenyl)-1H-1,2,3-triazol-1-yl)tetrahydro-2H-pyran-3-ol] in this work.

An IC50 (human Gal-3 (hGal-3)) of 180 nM and an IC50 (human Gal-1 (hGal-1)) of 10300 nM were found for CO[C@@H]1[C@@H](n2cc(-c3cc(F)c(Cl)c(F)c3)nn2)[C@@H](O)[C@@H](CO)O[C@@H]1CC1=NOC2(CCCCC2)C1 [Example 1.18, (2R,3R,4S,5R,6R)-6-((1-oxa-2-azaspiro[4.5]dec-2-en-3-yl)methyl)-4-(4-(4-chloro-3,5-difluorophenyl)-1H-1,2,3-triazol-1-yl)-2-(hydroxymethyl)-5-methoxytetrahydro-2H-pyran-3-ol] in this work.

An IC50 (human Gal-3 (hGal-3)) of 490 nM and an IC50 (human Gal-1 (hGal-1)) of 4800 nM were found for CO[C@@H]1[C@@H](n2cc(-c3ccc(Cl)c(F)c3F)nn2)[C@@H](O)[C@@H](CO)O[C@@H]1CC1=NOC2(CCN(C(=O)OC(C)(C)C)C2)C1 (mixture of isomers) [Example 1.79, tert-butyl (RS)-3-(((2R,3R,4S,5R,6R)-4-(4-(4-chloro-2,3-difluorophenyl)-1H-1,2,3-triazol-1-yl)-5-hydroxy-6-(hydroxymethyl)-3-methoxytetrahydro-2H-pyran-2-yl)methyl)-1-oxa-2,7-diazaspiro[4.4]non-2-ene-7-carboxylate] in this work.

An IC50 (human Gal-3 (hGal-3)) of 490 nM and an IC50 (human Gal-1 (hGal-1)) of 2600 nM were found for CO[C@@H]1[C@@H](n2cc(-c3ccc(F)c(F)c3F)nn2)[C@@H](O)[C@@H](CO)O[C@@H]1CC1=NOC2(CCC(C(C)(C)O)CC2)C1 (stereo partly drawn) [Example 1.48, (2R,3R,4S,5R,6R)-2-(hydroxymethyl)-6-((8-(2-hydroxypropan-2-yl)-1-oxa-2-azaspiro[4.5]dec-2-en-3-yl)methyl)-5-methoxy-4-(4-(2,3,4-trifluorophenyl)-1H-1,2,3-triazol-1-yl)tetrahydro-2H-pyran-3-ol] in this work.

An IC50 (human Gal-3 (hGal-3)) of 110 nM and an IC50 (human Gal-1 (hGal-1)) of 2700 nM were found for CO[C@@H]1[C@@H](n2cc(-c3ccc(C)c(F)c3F)nn2)[C@@H](O)[C@@H](CO)O[C@@H]1CC1=NOC2(CCNC(=O)CC2)C1 (mixture of isomers) [Example 1.76] in this work.

An IC50 (human Gal-3 (hGal-3)) of 260 nM and an IC50 (human Gal-1 (hGal-1)) of 2800 nM were found for CO[C@@H]1[C@@H](n2cc(-c3ccc(F)c(F)c3F)nn2)[C@@H](O)[C@@H](CO)O[C@@H]1CC1=NO[C@]2(CC[C@H](C(C)(C)O)CC2)C1 [Example 1.52, (2R,3R,4S,5R,6R)-2-(hydroxymethyl)-6-(((5r,8R)-8-(2-hydroxypropan-2-yl)-1-oxa-2-azaspiro[4.5]dec-2-en-3-yl)methyl)-5-methoxy-4-(4-(2,3,4-trifluorophenyl)-1H-1,2,3-triazol-1-yl)tetrahydro-2H-pyran-3-ol] in this work.

An IC50 (human Gal-3 (hGal-3)) of 71 nM and an IC50 (human Gal-1 (hGal-1)) of 340 nM were found for CO[C@@H]1[C@@H](n2cc(-c3ccc(C)c(F)c3F)nn2)[C@@H](O)[C@@H](CO)O[C@@H]1CC1=NO[C@]2(CC[C@H](NC(C)=O)CC2)C1 [Example 2.06] in this work.

An IC50 (human Gal-3 (hGal-3)) of 320 nM and an IC50 (human Gal-1 (hGal-1)) of 5700 nM were found for CO[C@@H]1[C@@H](n2cc(-c3cc(F)c(F)c(F)c3)nn2)[C@@H](O)[C@@H](CO)O[C@@H]1CC1=NOC2(CCNCC2)C1 [Example 1.07, (2R,3R,4S,5R,6R)-6-((1-oxa-2,8-diazaspiro[4.5]dec-2-en-3-yl)methyl)-2-(hydroxymethyl)-5-methoxy-4-(4-(3,4,5-trifluorophenyl)-1H-1,2,3-triazol-1-yl)tetrahydro-2H-pyran-3-ol] in this work.

An IC50 (human Gal-3 (hGal-3)) of 300 nM and an IC50 (human Gal-1 (hGal-1)) of 3100 nM were found for CCO[C@@H]1[C@@H](n2cc(-c3cc(F)c(F)c(F)c3)nn2)[C@@H](O)[C@@H](CO)O[C@@H]1CC1=NOC2(CCCCC2)C1 [Example 1.69, (2R,3R,4S,5R,6R)-6-((1-oxa-2-azaspiro[4.5]dec-2-en-3-yl)methyl)-5-ethoxy-2-(hydroxymethyl)-4-(4-(3,4,5-trifluorophenyl)-1H-1,2,3-triazol-1-yl)tetrahydro-2H-pyran-3-ol] in this work.

An IC50 (human Gal-3 (hGal-3)) of 74 nM and an IC50 (human Gal-1 (hGal-1)) of 400 nM were found for CO[C@@H]1[C@@H](n2cc(-c3ccc(Cl)c(F)c3F)nn2)[C@@H](O)[C@@H](CO)O[C@@H]1CN1CC2(CCCCC2)CNC1=O [Example 4.02, 2-(((2R,3R,4S,5R,6R)-4-(4-(4-chloro-2,3-difluorophenyl)-1H-1,2,3-triazol-1-yl)-5-hydroxy-6-(hydroxymethyl)-3-methoxytetrahydro-2H-pyran-2-yl)methyl)-2,4-diazaspiro[5.5]undecan-3-one] in this work.

An IC50 (human Gal-3 (hGal-3)) of 250 nM and an IC50 (human Gal-1 (hGal-1)) of 2700 nM were found for CO[C@@H]1[C@@H](n2cc(-c3cc(F)c(F)c(F)c3)nn2)[C@@H](O)[C@@H](CO)O[C@@H]1CC1=NOC2(CCC(=O)CC2)C1 [Example 1.66, 3-(((2R,3R,4S,5R,6R)-5-hydroxy-6-(hydroxymethyl)-3-methoxy-4-(4-(3,4,5-trifluorophenyl)-1H-1,2,3-triazol-1-yl)tetrahydro-2H-pyran-2-yl)methyl)-1-oxa-2-azaspiro[4.5]dec-2-en-8-one] in this work.

An IC50 (human Gal-3 (hGal-3)) of 240 nM and an IC50 (human Gal-1 (hGal-1)) of 2400 nM were found for CO[C@@H]1[C@@H](n2cc(-c3cc(F)c(F)c(F)c3)nn2)[C@@H](O)[C@@H](CO)O[C@@H]1CC1=NOC2(CCC(NC3CC3)CC2)C1 (stereo partly drawn) [Example 2.16, (2R,3R,4S,5R,6R)-6-((8-(cyclopropylamino)-1-oxa-2-azaspiro[4.5]dec-2-en-3-yl)methyl)-2-(hydroxymethyl)-5-methoxy-4-(4-(3,4,5-trifluorophenyl)-1H-1,2,3-triazol-1-yl)tetrahydro-2H-pyran-3-ol] in this work.

An IC50 (human Gal-3 (hGal-3)) of 700 nM and an IC50 (human Gal-1 (hGal-1)) of 5100 nM were found for CO[C@@H]1[C@@H](n2cc(-c3cc(F)c(F)c(F)c3)nn2)[C@@H](O)[C@@H](CO)O[C@@H]1CC1=NO[C@]2(CC[C@@H](O)CC2)C1 [Example 2.02, (5s,8S)-3-(((2R,3R,4S,5R,6R)-5-hydroxy-6-(hydroxymethyl)-3-methoxy-4-(4-(3,4,5-trifluorophenyl)-1H-1,2,3-triazol-1-yl)tetrahydro-2H-pyran-2-yl)methyl)-1-oxa-2-azaspiro[4.5]dec-2-en-8-ol] in this work.

An IC50 (human Gal-3 (hGal-3)) of 190 nM and an IC50 (human Gal-1 (hGal-1)) of 2000 nM were found for CO[C@@H]1[C@@H](n2cc(-c3cc(F)c(F)c(F)c3)nn2)[C@@H](O)[C@@H](CO)O[C@@H]1CC1=NO[C@]2(CC[C@H](O)CC2)C1 [Example 2.03, (5r,8R)-3-(((2R,3R,4S,5R,6R)-5-hydroxy-6-(hydroxymethyl)-3-methoxy-4-(4-(3,4,5-trifluorophenyl)-1H-1,2,3-triazol-1-yl)tetrahydro-2H-pyran-2-yl)methyl)-1-oxa-2-azaspiro[4.5]dec-2-en-8-ol] in this work.

An IC50 (human Gal-3 (hGal-3)) of 200 nM and an IC50 (human Gal-1 (hGal-1)) of 5400 nM were found for CO[C@@H]1[C@@H](n2cc(-c3ccc(C)c(F)c3F)nn2)[C@@H](O)[C@@H](CO)O[C@@H]1CC1=NOC2(CCC(C(C)(C)O)CC2)C1 (stereo partly drawn) [Example 1.54, (2R,3R,4S,5R,6R)-4-(4-(2,3-difluoro-4-methylphenyl)-1H-1,2,3-triazol-1-yl)-2-(hydroxymethyl)-6-((8-(2-hydroxypropan-2-yl)-1-oxa-2-azaspiro[4.5]dec-2-en-3-yl)methyl)-5-methoxytetrahydro-2H-pyran-3-ol] in this work.
